{
  "source": "patent US20230227437A1",
  "about": "“IMMUNOMODULATOR” (priority 2020, published 2023)",
  "key": {"[1]": {"biological_target": "T1, human IL-17A (hIL-17A) (Homo sapiens, UniProt Q16552)", "T1 construct": "purchased Sino Biological Inc. 12047-H07B", "T1 sequence (Q16552 24-155)": "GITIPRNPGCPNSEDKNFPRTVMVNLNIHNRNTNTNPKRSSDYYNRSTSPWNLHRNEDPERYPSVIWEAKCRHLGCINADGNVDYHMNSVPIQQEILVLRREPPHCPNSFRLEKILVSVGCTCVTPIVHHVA", "assay": "IL-17A enzyme-linked immunosorbent assay (competitive ELISA, receptor-ligand binding)", "experimental": "The inhibition of receptor-ligand binding by human IL-17A (hIL-17A) inhibitors was detected by competitive ELISA. A 96-well plate was inoculated 0.2 μg/ml IL-17 (Sino Biological Inc. Cat #12047-H07B) for incubation at 37° C. for 30 min, 100 μL for per well. The 96-well plate was washed four times with phosphate buffered saline (PBS) containing Tween-20 (PBST, 0.05% Tween-20), 200 μL for per well each time. 200 μL of 5% skim milk were added into the 96-well plate for incubation on a shaker at 25° C. for 30 min. The 96-well plate was washed four times with PBST (0.05% Tween-20), and added with 89 μL of PBST and 1 μL of a compound to be measured (100×), in which a concentration the compound to be measured (100×) was 0.003 μM-30 μM. The mixture was mixed evenly and incubated at 25° C. for 10 min. The mixture was added with 10 μL of 16 nM IL-17R, followed by incubation at 25° C. for 30 min. After washing the 96-well plate 4 times, 100 μL of anti-Fc tag horseradish peroxidase (HRP) coupled antibody were added for incubation on a shaker at 25° C. for 30 min. After washing the 96-well plate 4 times, 100 μL of 3,3′,5,5′-tetramethylbenzidine (TMB) substrate solution were added to the 96-well plate for incubation away from light at 25° C. After addition of 20% HCl, an absorbance was measure by a microplate reader at 450 nm.\nThe compounds prepared according to the above method were assayed for human IL-17A inhibitory activity."}, "[2]": {"biological_target": "T2, hIL-17A (Homo sapiens, UniProt Q16552)", "T2 construct": "purchased R&D 317-ILB", "T2 sequence (Q16552 20-155 limits assumed)": "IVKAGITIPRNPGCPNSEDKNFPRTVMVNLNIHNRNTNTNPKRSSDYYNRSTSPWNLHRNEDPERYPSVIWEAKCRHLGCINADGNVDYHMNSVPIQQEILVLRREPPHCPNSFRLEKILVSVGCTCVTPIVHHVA", "assay": "Inhibition of hIL-17A-induced chemokine GROα/CXCL1 production in HT-29 cell", "format": "cell-based", "experimental": "Human colorectal adenocarcinoma cell HT-29 was inoculated to a 96-well plate (5×10^4 for per well), and incubated at 37° C. on an incubator overnight. A mixture of 30 ng/mL hIL-17A protein (R&D, #317-ILB) with gradient concentrations of IL-17A small molecule inhibitors or with 0.3 μg/mL positive control IL-17A antibody (R&D, #AF-317-NA) was incubated for 1 h at 37° C., and added into the 96-well plate to incubated with HT-29 at 37° C. for 48 h. A level of GROα in a cell culture supernatant was then detected using an ELISA kit for GROα (Cisbio, #62HCXC1peg).\nInhibitory effect of the compound prepared in Examples on hIL-17A-induced chemokine GROα/CXCL1 production in HT-29 cell was tested according to the methods of Experimental Examples 1 and 2. […] “-” indicated not tested. According to the results, the compounds provided herein have good human IL-17A inhibitory activity and can be effectively used in the treatment of diseases associated with abnormal hIL-17A activity."}},
  "data": [
    {"smiles": "Cc1n[nH]c(C)c1-c1ccc(NC(=O)[C@@H](NC(=O)c2ccnn2C)C2c3ccccc3CC23CC3)cc1", "note": "(stereo partly shown) [Compound 1]", "values": [
      {"measurement": "IC50", "setting": "[1]", "value": 18, "unit": "nM"},
      {"measurement": "IC50", "setting": "[2]", "value": 404, "unit": "nM"}
    ]},
    {"smiles": "Cc1n[nH]c(C)c1-c1ccc(NC(=O)[C@@H](NC(=O)c2ccnn2C)C2c3cc(F)ccc3CC23CC3)cc1", "note": "(stereo partly shown) [Compound 2]", "values": [
      {"measurement": "IC50", "setting": "[1]", "value": 41, "unit": "nM"},
      {"measurement": "IC50", "setting": "[2]", "value": 196, "unit": "nM"}
    ]},
    {"smiles": "Cc1n[nH]c(C)c1-c1ccc(NC(=O)[C@@H](NC(=O)c2ccnn2C)C2c3ccccc3OCC23CC3)cc1", "note": "(stereo partly shown) [Compound 3]", "values": [
      {"measurement": "IC50", "setting": "[1]", "value": 40, "unit": "nM"},
      {"measurement": "IC50", "setting": "[2]", "value": 213, "unit": "nM"}
    ]},
    {"smiles": "Cc1n[nH]c(C)c1-c1ccc(NC(=O)[C@@H](NC(=O)c2ccnn2C)C2c3cc(F)ccc3OCC23CC3)cc1", "note": "(stereo partly shown) [Compound 4]", "values": [
      {"measurement": "IC50", "setting": "[1]", "value": 50, "unit": "nM"},
      {"measurement": "IC50", "setting": "[2]", "value": 50, "unit": "nM"}
    ]},
    {"smiles": "Cn1nccc1C(=O)N[C@H](C(=O)Nc1ccc(N2CCOCC2)nc1)C1c2ccccc2CC12CC2", "note": "(stereo partly shown) [Compound 10]", "values": [
      {"measurement": "IC50", "setting": "[1]", "value": 98, "unit": "nM"}
    ]},
    {"smiles": "Cc1n[nH]c(C)c1-c1ccc(NC(=O)[C@@H](NC(=O)c2ccnn2C)C2c3c(F)cccc3CC23CC3)cc1", "note": "(stereo partly shown) [Compound 13]", "values": [
      {"measurement": "IC50", "setting": "[1]", "value": 31, "unit": "nM"},
      {"measurement": "IC50", "setting": "[2]", "value": 391, "unit": "nM"}
    ]},
    {"smiles": "Cc1nonc1C(=O)N[C@H](C(=O)Nc1ccc(-c2c(C)n[nH]c2C)cc1)C1c2c(F)cccc2CC12CC2", "note": "(stereo partly shown) [Compound 14]", "values": [
      {"measurement": "IC50", "setting": "[1]", "value": 59, "unit": "nM"},
      {"measurement": "IC50", "setting": "[2]", "value": 206, "unit": "nM"}
    ]},
    {"smiles": "Cc1nonc1C(=O)N[C@H](C(=O)Nc1ccc(-c2c(C)n[nH]c2C)cc1)C1c2ccc(F)cc2CC12CC2", "note": "(stereo partly shown) [Compound 15]", "values": [
      {"measurement": "IC50", "setting": "[1]", "value": 48, "unit": "nM"},
      {"measurement": "IC50", "setting": "[2]", "value": 71, "unit": "nM"}
    ]},
    {"smiles": "Cc1n[nH]c(C)c1-c1ccc(NC(=O)[C@@H](NC(=O)c2ccnn2C)C2c3ccc(F)cc3CC23CC3)cc1", "note": "(stereo partly shown) [Compound 16]", "values": [
      {"measurement": "IC50", "setting": "[1]", "value": 43, "unit": "nM"},
      {"measurement": "IC50", "setting": "[2]", "value": 55, "unit": "nM"}
    ]},
    {"smiles": "Cc1n[nH]c(C)c1-c1ccc(NC(=O)[C@@H](NC(=O)c2ccnn2C)C2c3ccc(F)cc3OCC23CC3)cc1", "note": "(stereo partly shown) [Compound 17]", "values": [
      {"measurement": "IC50", "setting": "[1]", "value": 36, "unit": "nM"},
      {"measurement": "IC50", "setting": "[2]", "value": 68, "unit": "nM"}
    ]},
    {"smiles": "Cc1nonc1C(=O)N[C@H](C(=O)Nc1ccc(-c2c(C)n[nH]c2C)nc1)C1c2cc(F)ccc2OCC12CC2", "note": "(stereo partly shown) [Compound 19]", "values": [
      {"measurement": "IC50", "setting": "[1]", "value": 190, "unit": "nM"},
      {"measurement": "IC50", "setting": "[2]", "value": 2050, "unit": "nM"}
    ]},
    {"smiles": "Cc1n[nH]c(C)c1-c1ccc(NC(=O)[C@@H](NC(=O)c2ccnn2C(C)C)C2c3cc(F)ccc3OCC23CC3)cn1", "note": "(stereo partly shown) [Compound 20]", "values": [
      {"measurement": "IC50", "setting": "[1]", "value": 61, "unit": "nM"},
      {"measurement": "IC50", "setting": "[2]", "value": 878, "unit": "nM"}
    ]},
    {"smiles": "CCn1nccc1C(=O)N[C@H](C(=O)Nc1ccc(-c2c(C)n[nH]c2C)nc1)C1c2cc(F)ccc2OCC12CC2", "note": "(stereo partly shown) [Compound 21]", "values": [
      {"measurement": "IC50", "setting": "[1]", "value": 66, "unit": "nM"},
      {"measurement": "IC50", "setting": "[2]", "value": 506, "unit": "nM"}
    ]},
    {"smiles": "Cc1n[nH]c(C)c1-c1ccc(NC(=O)[C@@H](NC(=O)c2ccnn2C)C2c3cc(F)ccc3OCC23CC3)cn1", "note": "(stereo partly shown) [Compound 22]", "values": [
      {"measurement": "IC50", "setting": "[1]", "value": 85, "unit": "nM"},
      {"measurement": "IC50", "setting": "[2]", "value": 1020, "unit": "nM"}
    ]},
    {"smiles": "CCc1nonc1C(=O)N[C@H](C(=O)Nc1ccc(-c2c(C)n[nH]c2C)nc1)C1c2cc(F)ccc2OCC12CC2", "note": "(stereo partly shown) [Compound 23]", "values": [
      {"measurement": "IC50", "setting": "[1]", "value": 98, "unit": "nM"},
      {"measurement": "IC50", "setting": "[2]", "value": 1050, "unit": "nM"}
    ]},
    {"smiles": "CCc1nonc1C(=O)N[C@H](C(=O)Nc1ccc(-c2c(C)n[nH]c2C)cc1)C1c2cc(F)ccc2OCC12CC2", "note": "(stereo partly shown) [Compound 25]", "values": [
      {"measurement": "IC50", "setting": "[1]", "value": 56, "unit": "nM"},
      {"measurement": "IC50", "setting": "[2]", "value": 194, "unit": "nM"}
    ]},
    {"smiles": "Cc1nonc1C(=O)N[C@H](C(=O)Nc1ccc(-c2c(C)n[nH]c2C)nc1)C1c2ccc(F)cc2OCC12CC2", "note": "(stereo partly shown) [Compound 27]", "values": [
      {"measurement": "IC50", "setting": "[1]", "value": 119, "unit": "nM"},
      {"measurement": "IC50", "setting": "[2]", "value": 672, "unit": "nM"}
    ]},
    {"smiles": "Cc1n[nH]c(C)c1-c1ccc(NC(=O)[C@@H](NC(=O)c2nonc2C(C)C)C2c3ccc(F)cc3OCC23CC3)cc1", "note": "(stereo partly shown) [Compound 28]", "values": [
      {"measurement": "IC50", "setting": "[1]", "value": 110, "unit": "nM"},
      {"measurement": "IC50", "setting": "[2]", "value": 83, "unit": "nM"}
    ]},
    {"smiles": "Cc1nonc1C(=O)N[C@H](C(=O)Nc1cnc(-c2c(C)n[nH]c2C)c(F)c1)C1c2ccc(F)cc2CC12CC2", "note": "(stereo partly shown) [Compound 29]", "values": [
      {"measurement": "IC50", "setting": "[1]", "value": 152, "unit": "nM"},
      {"measurement": "IC50", "setting": "[2]", "value": 378, "unit": "nM"}
    ]},
    {"smiles": "Cc1n[nH]c(C)c1-c1ncc(NC(=O)[C@@H](NC(=O)c2ccnn2C)C2c3ccc(F)cc3CC23CC3)cc1F", "note": "(stereo partly shown) [Compound 30]", "values": [
      {"measurement": "IC50", "setting": "[1]", "value": 65, "unit": "nM"},
      {"measurement": "IC50", "setting": "[2]", "value": 229, "unit": "nM"}
    ]},
    {"smiles": "Cc1n[nH]c(C)c1-c1ccc(NC(=O)[C@@H](NC(=O)c2ccnn2C)C2c3ccc(F)cc3CC23CC3)cn1", "note": "(stereo partly shown) [Compound 31]", "values": [
      {"measurement": "IC50", "setting": "[1]", "value": 72, "unit": "nM"},
      {"measurement": "IC50", "setting": "[2]", "value": 872, "unit": "nM"}
    ]},
    {"smiles": "Cc1nonc1C(=O)N[C@H](C(=O)Nc1ccc(-c2c(C)n[nH]c2C)nc1)C1c2ccc(F)cc2CC12CC2", "note": "(stereo partly shown) [Compound 32]", "values": [
      {"measurement": "IC50", "setting": "[1]", "value": 75, "unit": "nM"},
      {"measurement": "IC50", "setting": "[2]", "value": 351, "unit": "nM"}
    ]}
  ]
}
